Data taken from ChEMBL document CHEMBL5226347, “Discovery of Chromane-6-Sulfonamide Derivative as a Potent, Selective, and Orally Available Novel Retinoic Acid Receptor-Related Orphan Receptor γt Inverse Agonist” (J Med Chem, 2021).
pIC50: −log10 of the molar value. Converted amounts (≈) assume the structure as drawn. The source made the active and inactive calls. The calls are words filed in the database; no cut-off is given here.

How the values were obtained:
[1] = Lipophilicity, log D of the compound at pH 7.4; type: physicochemical; conditions: buffer
[2] = Metabolic stability in human liver microsomes assessed as half life incubated for 5 to 30 mins by HPLC-MS/MS analysis; type: ADME, Microsome; conditions: microsomes, time 5-30 min
[3] = Metabolic stability in human liver assessed as intrinsic clearance incubated for 5 to 30 mins by HPLC-MS/MS analysis; type: ADME, tissue-based; conditions: liver (preparation not stated), time 5-30 min, read-out: CLH
[4] = Metabolic stability in human liver microsomes assessed as parent compound remaining measured at 60 mins by HPLC-MS/MS analysis; type: ADME, Microsome; conditions: 1 h
[5] = Solubility of compound in aqueous buffer at pH 7.4; type: physicochemical
[6] = target: T1, Nuclear receptor ROR-beta (Homo sapiens, UniProt Q92753); assay: Inhibition of human GAL4-fused RORbeta LBD transfected in HEK293T cell measured for 16 to 20 hrs by dual-glo luciferase assay; type: cell-based
T1 sequence (Q92753 whole entry): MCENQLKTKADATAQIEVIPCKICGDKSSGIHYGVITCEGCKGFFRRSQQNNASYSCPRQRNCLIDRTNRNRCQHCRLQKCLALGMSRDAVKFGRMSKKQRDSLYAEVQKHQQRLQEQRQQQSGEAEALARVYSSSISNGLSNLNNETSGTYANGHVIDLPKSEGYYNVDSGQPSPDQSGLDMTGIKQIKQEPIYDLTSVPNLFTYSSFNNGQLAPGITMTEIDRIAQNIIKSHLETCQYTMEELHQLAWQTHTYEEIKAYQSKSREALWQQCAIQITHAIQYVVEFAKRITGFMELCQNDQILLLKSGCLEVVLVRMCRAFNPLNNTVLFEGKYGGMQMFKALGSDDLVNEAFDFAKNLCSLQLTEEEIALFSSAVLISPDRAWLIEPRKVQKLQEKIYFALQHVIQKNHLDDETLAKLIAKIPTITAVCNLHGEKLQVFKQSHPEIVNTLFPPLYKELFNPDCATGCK

[7] = Half life in mouse at 0.3 mg/kg, iv measured at 2 to 1440 mins by LC-MS analysis; type: ADME, organism-based; conditions: in vivo, time 2-1440 min
[8] = Half life in mouse at 1 mg/kg, po measured at 5 to 1440 mins by LC-MS analysis; type: ADME, organism-based; conditions: in vivo, time 5-1440 min
[9] = Tmax in mouse at 0.3 mg/kg, iv measured at 2 to 1440 mins by LC-MS analysis; type: ADME, organism-based; conditions: in vivo, time 2-1440 min
[10] = Tmax in mouse at 1 mg/kg, po measured at 5 to 1440 mins by LC-MS analysis; type: ADME, organism-based; conditions: in vivo, time 5-1440 min
[11] = Cmax in mouse at 0.3 mg/kg, iv measured at 2 to 1440 mins by LC-MS analysis; type: ADME, organism-based; parameters: time 2-1440 min, dose 0.3 mg/kg, route iv; conditions: in vivo
[12] = Cmax in mouse at 1 mg/kg, po measured at 5 to 1440 mins by LC-MS analysis; type: ADME, organism-based; parameters: time upper 1440 min, time lower 5 min, dose 1 mg/kg, route po; conditions: in vivo
[13] = Volume of distribution at steady state in mouse at 0.3 mg/kg, iv measured at 2 to 1440 mins by LC-MS analysis; type: ADME, organism-based; conditions: in vivo, time 2-1440 min, read-out: Vdss
[14] = Clearance in mouse at 0.3 mg/kg, iv measured at 2 to 1440 mins by LC-MS analysis; type: ADME, organism-based; conditions: in vivo, time 2-1440 min
[15] = AUC (0 to t) in mouse at 0.3 mg/kg, iv measured at 2 to 1440 mins by LC-MS analysis; type: ADME, organism-based; parameters: time lower 2 min, dose 0.3 mg/kg, time upper 1440 min, route iv; conditions: in vivo
[16] = AUC (0 to t) in mouse at 1 mg/kg, po measured at 5 to 1440 mins by LC-MS analysis; type: ADME, organism-based; parameters: time 5-1440 min, dose 1 mg/kg, route po; conditions: in vivo
[17] = AUC (0 to infinity) in mouse at 0.3 mg/kg, iv measured at 2 to 1440 mins by LC-MS analysis; type: ADME, organism-based; parameters: dose 0.3 mg/kg, time 2-1440 min, route iv; conditions: in vivo
[18] = AUC (0 to infinity) in mouse at 1 mg/kg, po measured at 5 to 1440 mins by LC-MS analysis; type: ADME, organism-based; parameters: dose 1 mg/kg, time 5-1440 min, route po; conditions: in vivo
[19] = Oral bioavailability in mouse at 1 mg/kg measured at 5 to 1440 mins by LC-MS analysis; type: ADME, organism-based; conditions: in vivo, time 5-1440 min
[20] = tested on: Mus musculus; assay: Antiinflammatory activity against imiquimod-induced Balb/c mouse skin inflammation model assessed as decrease in erythema at 5 to 20 mg/kg, po BID for 13 days; type: functional, organism-based; conditions: dose 5-20 mg/kg, time 13.0 day
[21] = tested on: Mus musculus; assay: Antiinflammatory activity against imiquimod-induced Balb/c mouse skin inflammation model assessed as reduction in scaling at 5 to 20 mg/kg, po BID for 13 days; type: functional, organism-based; conditions: dose 5-20 mg/kg, time 13.0 day
[22] = tested on: Mus musculus; assay: Antiinflammatory activity against imiquimod-induced Balb/c mouse skin inflammation model assessed as reduction in skin thickening at 5 to 20 mg/kg, po BID for 13 days; type: functional, organism-based; conditions: dose 5-20 mg/kg, time 13.0 day
[23] = tested on: Mus musculus; assay: Antiinflammatory activity against imiquimod-induced Balb/c mouse skin inflammation model assessed as reduction in total psoriasis area at 20 mg/kg, po BID for 13 days; type: functional, organism-based; conditions: time 13.0 day
[24] = tested on: Mus musculus; assay: Antiinflammatory activity against imiquimod-induced Balb/c mouse skin inflammation model assessed as reduction in severity index score at 20 mg/kg, po BID for 13 days; type: functional; parameters: scale not given: the % may be the effect or the level left; conditions: time 13 day
[25] = tested on: Mus musculus; assay: Antiinflammatory activity against imiquimod-induced Balb/c mouse skin inflammation model assessed as inhibition of IL-17A level at 20 mg/kg, po measured for 13 days; type: functional; parameters: scale not given: the % may be the effect or the level left; conditions: time 13 day
[26] = tested on: Mus musculus; assay: Antiinflammatory activity against imiquimod-induced Balb/c mouse skin inflammation model assessed as inhibition of IL-6 level at 20 mg/kg, po measured for 13 days; type: functional; parameters: scale not given: the % may be the effect or the level left; conditions: time 13 day
[27] = Toxicity in Balb/c mouse assessed as body weight loss at 5 to 20 mg/kg, po administered for 12 days; type: organism-based; conditions: in vivo, 288 h, dose 5-20 mg/kg, time 12 day
[28] = Toxicity in Balb/c mouse assessed as inflammatory cell infiltration at 10 to 20 mg/kg, po administered for 13 days; type: organism-based; conditions: in vivo, 312 h, dose 10-20 mg/kg, time 13 day
[29] = tested on: Mus musculus; assay: Antiinflammatory activity against imiquimod-induced Balb/c mouse skin inflammation model assessed as decrease in skin thickening at 10 to 20 mg/kg, po measured for 13 days; type: functional, organism-based; conditions: dose 10-20 mg/kg, time 13.0 day

logD [1]: 3.69 | t1/2 [2]: 0.817 h | CLint scaled [3]: 27.1 mL/min/kg | Stability [4]: 45.1% | solubility [5]: 8.68 µg/mL (≈ 18.4 µM) | pIC50 [6]: < 5.00 | half-life [7]: 0.87 h | half-life [8]: 1.32 h | Tmax [9]: 1.52 h | Tmax [10]: 2.32 h | Cmax [11]: 83 ng/mL | Cmax [12]: 94 ng/mL | Vd [13]: 1.54 L/kg | clearance [14]: 38.6 mL/min/kg | AUC(0-t) [15]: 153 ng·h/mL | AUC(0-t) [16]: 285 ng·h/mL | AUC(0-inf) [17]: 163 ng·h/mL | AUC(0-inf) [18]: 298 ng·h/mL | bioavailability [19]: 55%
SMILES: CCc1ccc(N(C2CCC2)S(=O)(=O)c2ccc3c(c2)C(O)CC(C2CCOCC2)O3)cc1 (centres undefined)
Activity [20]: Active | Activity [21]: Active | Activity [22]: Active | Activity [23]: Active | Activity [24]: 70.5% | Activity [25]: 37.6% | Activity [26]: 71.9% | Activity [27]: Non-Toxic | Activity [28]: Non-Toxic | Activity [29]: inactive
